ChEMBL document CHEMBL1201862, “PubChem BioAssay data set” (2004)
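Cells were grown in 96-well plates and exposed to each compound for 48 hours at five concentrations; endpoints were interpolated linearly between bracketing concentrations, or set to the highest concentration if not reached. Here, GI50 denotes the concentration required for 50% inhibition of growth.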 The source made the active and inactive calls. No stated cut-off is given here; in the data, active = GI50 up to about 1.1 µM and inactive = higher.

What was measured:
Assay in all cases: NCI tumour cell line growth inhibition, 48 h
[1] = tested on: ACHN
[2] = tested on: HCC 2998
[3] = tested on: HOP-62
[4] = tested on: HOP-92
[5] = tested on: IGROV-1
[6] = tested on: MCF7
[7] = tested on: MOLT-4
[8] = tested on: Malme-3M
[9] = tested on: NCI-H23
[10] = tested on: NCI-H460
[11] = tested on: NCI-H522
[12] = tested on: NCI/ADR-RES
[13] = tested on: RXF 393
[14] = tested on: SF-539
[15] = tested on: SK-MEL-28
[16] = tested on: SK-MEL-2
[17] = tested on: SN12C
[18] = tested on: SR
[19] = tested on: T47D
[20] = tested on: UO-31

SMILES | GI50 [1] | GI50 [2] | GI50 [3] | GI50 [4] | GI50 [5] | GI50 [6] | GI50 [7] | GI50 [8] | GI50 [9] | GI50 [10] | GI50 [11] | GI50 [12] | GI50 [13] | GI50 [14] | GI50 [15] | GI50 [16] | GI50 [17] | GI50 [18] | GI50 [19] | GI50 [20]
CC(C)=CC[S+]([O-])c1ccccc1NC1=CC(=O)CC(C)(C)C1 (stereo not drawn) | > 100 µM (inactive) | > 100 µM (inactive) | 0.124 µM (active) | > 100 µM (inactive) | > 100 µM (inactive) | > 100 µM (inactive) | > 100 µM (inactive) | > 100 µM (inactive) | > 100 µM (inactive) | > 100 µM (inactive) | > 100 µM (inactive) | > 100 µM (inactive) | > 100 µM (inactive) | > 100 µM (inactive) | > 100 µM (inactive) | > 100 µM (inactive) | > 100 µM (inactive) | > 100 µM (inactive) | > 100 µM (inactive) | > 100 µM (inactive)
O=C1CC2(CCNCC2)C(=O)N1N1CCCCC1 | > 100 µM (inactive) | > 100 µM (inactive) | > 100 µM (inactive) | > 100 µM (inactive) | > 100 µM (inactive) | > 100 µM (inactive) | > 100 µM (inactive) | > 100 µM (inactive) | > 100 µM (inactive) | > 100 µM (inactive) | > 100 µM (inactive) | > 100 µM (inactive) | > 100 µM (inactive) | > 100 µM (inactive) | > 100 µM (inactive) | > 100 µM (inactive) | > 100 µM (inactive) | > 100 µM (inactive) | > 100 µM (inactive) | > 100 µM (inactive)
CC(=O)OC(C)c1cc2c(s1)C(=O)c1sccc1C2=O (stereo not drawn) | 1.45 µM (inactive) | 1.99 µM (inactive) | 1.03 µM (active) | 3.51 µM (inactive) | 2.02 µM (inactive) | 0.995 µM (active) | 2.7 µM (inactive) | 0.21 µM (active) | 0.221 µM (active) | 1.06 µM (active) | 1.27 µM (inactive) | 1.71 µM (inactive) | 1.56 µM (inactive) | 0.268 µM (active) | 0.916 µM (active) | 0.504 µM (active) | 0.542 µM (active) | 0.51 µM (active) | 2.58 µM (inactive) | 1.55 µM (inactive)
C[n+]1ccn2c3nc4ccccc4nc3c([O-])c(C#N)c21 | > 100 µM (inactive) | > 10 µM (inactive) | > 10 µM (inactive) | > 100 µM (inactive) | > 31.4 µM (inactive) | 88.9 µM (inactive) | > 100 µM (inactive) | > 100 µM (inactive) | > 100 µM (inactive) | > 10 µM (inactive) | > 10 µM (inactive) | > 34.2 µM (inactive) | > 65.9 µM (inactive) | > 100 µM (inactive) | > 100 µM (inactive) | > 4.65 µM (inactive) | > 100 µM (inactive) | > 100 µM (inactive) | > 100 µM (inactive) | > 100 µM (inactive)
CC1OC(O)CC(N(C)C)C1O.CC1OC(O)CCC1O.CCC1CC(O)c2c(O)c3c(c(O)c2C1O)C(=O)c1cccc(O)c1C3=O (stereo not drawn) | 0.0159 µM (active) | 0.0197 µM (active) | 0.034 µM (active) | 0.01 µM (active) | 0.0284 µM (active) | 0.0325 µM (active) | 0.0284 µM (active) | 0.021 µM (active) | 0.0301 µM (active) | 0.00486 µM (active) | 0.0121 µM (active) | 0.251 µM (active) | 0.0039 µM (active) | 0.0373 µM (active) | 0.0266 µM (active) | 0.0212 µM (active) | 0.0353 µM (active) | 0.0083 µM (active) | 0.0242 µM (active) | 0.0114 µM (active)
COc1ccc2c(c1)c1c(n2CCN2CCOCC2)-c2ccccc2CC1 | 38.5 µM (inactive) | 20.7 µM (inactive) | 45.4 µM (inactive) | 46.8 µM (inactive) | 37.2 µM (inactive) | 30.8 µM (inactive) | 17.1 µM (inactive) | 32.8 µM (inactive) | > 100 µM (inactive) | 31.9 µM (inactive) | 35.4 µM (inactive) | 35.5 µM (inactive) | 34 µM (inactive) | 23.1 µM (inactive) | 42.4 µM (inactive) | 25.4 µM (inactive) | 18.8 µM (inactive) | 18.2 µM (inactive) | 39.5 µM (inactive) | > 100 µM (inactive)
CCN(CC)CCCNc1n[n+]([O-])c2ccccc2[n+]1[O-] | 6.41 µM (inactive) | 3.46 µM (inactive) | – | 27.1 µM (inactive) | 5.73 µM (inactive) | 3.92 µM (inactive) | 2.73 µM (inactive) | 11.3 µM (inactive) | 11.6 µM (inactive) | 3.99 µM (inactive) | 8.22 µM (inactive) | 42.4 µM (inactive) | 13 µM (inactive) | 20.7 µM (inactive) | 63.1 µM (inactive) | 4.74 µM (inactive) | 4.68 µM (inactive) | 13.7 µM (inactive) | 14.3 µM (inactive) | 28.6 µM (inactive)
COc1c2occc2c(N)c2ccc(=O)oc12 | > 100 µM (inactive) | > 100 µM (inactive) | > 100 µM (inactive) | > 100 µM (inactive) | > 100 µM (inactive) | > 100 µM (inactive) | > 100 µM (inactive) | > 100 µM (inactive) | > 100 µM (inactive) | > 100 µM (inactive) | 75 µM (inactive) | > 100 µM (inactive) | 15.3 µM (inactive) | 75.2 µM (inactive) | > 100 µM (inactive) | > 100 µM (inactive) | > 100 µM (inactive) | > 100 µM (inactive) | > 100 µM (inactive) | > 100 µM (inactive)
Cc1cc(S(=O)(=O)Nc2nc3ccccc3nc2-c2cccc([N+](=O)[O-])c2)c(S)cc1Cl | 27.8 µM (inactive) | 18.8 µM (inactive) | 20.2 µM (inactive) | 17.9 µM (inactive) | 13.2 µM (inactive) | 24 µM (inactive) | 22.6 µM (inactive) | 18.5 µM (inactive) | 17.1 µM (inactive) | 11 µM (inactive) | 16.8 µM (inactive) | 19.9 µM (inactive) | 33.7 µM (inactive) | 22.8 µM (inactive) | 15.8 µM (inactive) | 21.9 µM (inactive) | 30 µM (inactive) | 20.8 µM (inactive) | 17.2 µM (inactive) | 22.5 µM (inactive)
COc1cc(OC)c(/C=N/N=C(\N)NO)c(OC)c1 | 15.6 µM (inactive) | > 100 µM (inactive) | 55.8 µM (inactive) | > 100 µM (inactive) | 90.6 µM (inactive) | > 100 µM (inactive) | > 100 µM (inactive) | > 100 µM (inactive) | > 100 µM (inactive) | 91.4 µM (inactive) | > 100 µM (inactive) | > 100 µM (inactive) | > 100 µM (inactive) | > 100 µM (inactive) | > 100 µM (inactive) | > 100 µM (inactive) | > 100 µM (inactive) | 63.5 µM (inactive) | > 100 µM (inactive) | 29 µM (inactive)
COc1ccc2nc3cccc([N+](=O)[O-])c3c(NCCO)c2c1 | 0.0105 µM (active) | 0.0146 µM (active) | 0.0208 µM (active) | 0.0195 µM (active) | 0.162 µM (active) | 0.018 µM (active) | 0.0255 µM (active) | 0.016 µM (active) | 0.0219 µM (active) | 0.00378 µM (active) | 0.017 µM (active) | 0.0182 µM (active) | 0.0126 µM (active) | 0.0182 µM (active) | 0.0277 µM (active) | 0.0175 µM (active) | 0.019 µM (active) | 0.001 µM (active) | 0.141 µM (active) | 0.0218 µM (active)
O=C(CCCN1CCC2(CC1)OC(=O)N(c1ccccc1)C2=O)c1ccccc1 | > 100 µM (inactive) | > 100 µM (inactive) | > 100 µM (inactive) | > 100 µM (inactive) | > 100 µM (inactive) | > 100 µM (inactive) | > 100 µM (inactive) | > 100 µM (inactive) | > 100 µM (inactive) | > 100 µM (inactive) | > 100 µM (inactive) | > 100 µM (inactive) | > 100 µM (inactive) | > 100 µM (inactive) | > 100 µM (inactive) | > 100 µM (inactive) | > 100 µM (inactive) | > 100 µM (inactive) | > 100 µM (inactive) | 27.8 µM (inactive)
COC(=O)C1=C(C(=O)OC)SC2(S1)C(C(=O)OC)=C(C(=O)OC)Sc1c2ss/c1=N\c1ccc(Cl)cc1 | 1.4 µM (inactive) | 0.325 µM (active) | 1.67 µM (inactive) | 0.638 µM (active) | 1.14 µM (inactive) | 1.11 µM (active) | 0.336 µM (active) | 1.83 µM (inactive) | 1.83 µM (inactive) | 0.333 µM (active) | 0.352 µM (active) | 1.84 µM (inactive) | 0.256 µM (active) | 0.51 µM (active) | 1.7 µM (inactive) | 0.325 µM (active) | 0.552 µM (active) | 0.277 µM (active) | 1.06 µM (active) | 0.804 µM (active)
COC(=O)Cn1c(=O)oc2nc(-c3ccccc3)cc(C(F)(F)F)c21 | > 100 µM (inactive) | > 100 µM (inactive) | > 100 µM (inactive) | 27.2 µM (inactive) | 66.1 µM (inactive) | > 100 µM (inactive) | 23.6 µM (inactive) | – | > 100 µM (inactive) | > 100 µM (inactive) | 25.3 µM (inactive) | 23.8 µM (inactive) | > 100 µM (inactive) | > 100 µM (inactive) | 24.4 µM (inactive) | > 100 µM (inactive) | 56.6 µM (inactive) | 62.2 µM (inactive) | > 100 µM (inactive) | > 100 µM (inactive)
